Data taken from patent US10662214B2, “Compound of 4′-thionucleoside, as well as preparation method therefor, pharmaceutical composition thereof and application thereof” (Sichuan Kelun-Biotech Biopharmaceutical Co., Ltd., priority 2015, dated 2020).

Legend:
[1] = Oral toxicity test in mice (administration for 7 days); format: in vivo; details: once per day for 7 days
Protocol: Normal Male and female Kunming mice (SPF grade, obtained from Laboratory Animal Center in Sichuan Academy of Chinese Medicine Science) were randomized by weight into groups. The test compound and vehicle control were formulated according to Experimental example 2. The dosage volume was 10 mL/kg, and the administration was performed by oral gavage, once per day for 7 consecutive days.

[2] = Intravenous toxicity test in mice (administration for 7 days); format: in vivo; details: mouse, in vivo, iv
Excerpt: This test was used to investigate the toxic reactions after intravenous administration of compound C8 to normal KM mice for 7 consecutive days.
KM mice passing the quarantine control were randomized into 4 groups (3 mice/gender/group). The test compound and vehicle control were formulated according to Experimental example 2. The mortality, appearance, behavior, mental status, secretion and excreta etc. of the animals were observed every day for 7 consecutive days after the administration, and the animals were anatomized on day 8.

[3] = tested on: gastric cancer cell NCI-N87; test: CCK-8 inhibition of proliferation, NCI-N87; format: cell-based, human; details: for inhibitory effect on gastric cancer cell NCI-N87 (in words): FIG. 1: 5-10000 nM; for IC50: Homo sapiens, NCI-N87, CCK-8, 72 h incubation
Protocol: (§1) The tumor cell lines employed in the present experiment were gastric cancer cell NCI-N87 (obtained from Guangzhou Jennio Biological Technology Co., Ltd.), colorectal cancer cell HCT-116 (obtained from Chengdu Center for Safety Evaluation of Drugs), colorectal cancer cell HCT-15 and pancreatic cancer cell BxPC-3 (both obtained from ATCC, US).
(§2) Each of the cell lines is cultured in a corresponding culture medium (RPMI-1640, IMDM and L-15 culture medium (manufacturer: Gibco)) supplemented with 10% heat inactivated Fetal Bovine Serum (manufacturer: Sigma), in an incubator at 37° C. and 5% CO2.
(§3) For each type of tumor cells, a blank group, a vehicle group (containing 1‰ DMSO) and 8 groups with a test compound at concentrations of 5 nM, 10 nM, 50 nM, 100 nM, 500 nM, 1000 nM, 5000 nM, and 10000 nM (with each concentration in triplicate) were set.
(§4) Appropriate amounts of test compounds were weighted, and dissolved in DMSO (cell culture grade, Sigma) to prepare stock solutions of various concentration gradients according to desired concentrations. During incubation, they were diluted by 1000 times as necessary, and incubation solutions with various drug concentrations were prepared (compound stock solution:medium containing 2% FBS=1:1000).
(§5) The experiment was performed according to a CCK-8 method as described below. Cancer cells to be tested were seeded in a 96-well culture plate at a concentration of 5˜10×10^4/mL (100 μL/well), followed by incubation at 37° C. and 5% CO2 for 24 h. The medium was discarded, and incubation solutions with different drug concentrations (200 μL) were respectively added to each well, and the cells were further incubated for 72 h. After the incubation, a CCK-8 solution (20 μL/well) was added to each well to be tested, and the incubation was continued for 4 h in the incubator. OD values at two wavelengths (Detection wavelength: 450 nm, and reference wavelength: 650 nm) were determined on a multifunctional fully-automatic microplate reader.
(§6) The inhibitory rate of tumor cell growth was calculated according to the following formula: Inhibitory rate=[(ODvehicle−ODblank)−(ODdrug−ODblank)]/(ODvehicle−ODblank)*100%
(§7) Based on the inhibitory rate, a concentration-inhibitory rate curve was fit using GraphPad prism 5.0 software, and IC50 was calculated.

[4] = tested on: colorectal cancer cell HCT-15; test: CCK-8 inhibition of proliferation, HCT-15; format: cell-based, human; details: for inhibitory effect on colorectal cancer cell HCT-15 (in words): FIG. 1: 5-10000 nM; for IC50: Homo sapiens, HCT-15, CCK-8, 72 h incubation
Protocol: as §1, §2, §3, §4, §5, §6, §7

[5] = tested on: pancreatic cancer cell BxPC-3; test: CCK-8 inhibition of proliferation, BxPC-3; format: cell-based, human; details: for inhibitory effect on pancreatic cancer cell BxPC-3 (in words): FIG. 1: 5-10000 nM; for IC50: Homo sapiens, BXPC-3, CCK-8, 72 h incubation
Protocol: as §1, §2, §3, §4, §5, §6, §7

Nc1ccn([C@@H]2S[C@H](CO)[C@@H](O)[C@@H]2F)c(=O)n1 [Compound A, 1-((2R,3S,4S,5R)-3-fluoro-4-hydroxy-5-(hydroxymethyl)tetrahydrothiophen-2-yl)cytosine, reference compound]
dosage at which death of animals occurred ([1]; oral gavage): about 77 μmol/kg
Results: mortality (3 Male + 3 Female) ([1]; ~77 μmol/kg oral gavage): symptoms, and two
body weight decrease on day 8, female mice [2]: 20.2%
body weight decrease on day 8, male mice [2]: 18.1%
symptoms observed on day 8 ([2]; 20 mg/kg): a hunched stance and weight loss

C[C@H](NP(=O)(OC[C@H]1S[C@@H](n2ccc(N)nc2=O)[C@@H](F)[C@@H]1O)Oc1ccccc1)C(=O)OCc1ccccc1 (stereo partly drawn) [Compound C2, (S)-benzyl 2-(((((2R,3S,4S,5R)-5-(4-amino-2-oxopyrimidin-1(2H)-yl)-4-fluoro-3-hydroxytetrahydrothiophen-2-yl)methoxy)(phenoxy)phosphoryl)amino)propanoate]
inhibitory effect on gastric cancer cell NCI-N87 (in words) [3]: excellent inhibitory effects
IC50 [3]: 250 nM
inhibitory effect on colorectal cancer cell HCT-15 (in words) [4]: excellent inhibitory effects
IC50 [4]: 2970 nM
inhibitory effect on pancreatic cancer cell BxPC-3 (in words) [5]: excellent inhibitory effects
IC50 [5]: 1280 nM

CC(C)OC(=O)[C@H](C)N[P@@](=O)(OC[C@H]1S[C@@H](n2ccc(N)nc2=O)[C@@H](F)[C@@H]1O)Oc1ccc2c(c1)OCO2 [Compound C13, (S)-isopropyl 2-(((R)-(((2R,3S,4S,5R)-5-(4-amino-2-oxopyrimidin-1 (2H)-yl)-4-fluoro-3-hydroxytetrahydrothiophen-2-yl)methoxy)(benzo[d][1,3]dioxol-5-yloxy)phosphoryl)amino)propanoate]
inhibitory effect on gastric cancer cell NCI-N87 (in words) [3]: excellent inhibitory effect
IC50 [3]: 550 nM

CC(C)OC(=O)[C@H](C)N[P@](=O)(OC[C@H]1S[C@@H](n2ccc(N)nc2=O)[C@@H](F)[C@@H]1O)Oc1ccc2c(c1)OCO2 [Compound C14, (S)-isopropyl 2-(((S)-(((2R,3S,4S,5R)-5-(4-amino-2-oxopyrimidin-1(2H)-yl)-4-fluoro-3-hydroxytetrahydrothiophen-2-yl)methoxy)(benzo[d][1,3]dioxol-5-yloxy)phosphoryl)amino)propanoate]
inhibitory effect on gastric cancer cell NCI-N87 (in words) [3]: excellent inhibitory effects
IC50 [3]: 180 nM
inhibitory effect on colorectal cancer cell HCT-15 (in words) [4]: excellent inhibitory effects
IC50 [4]: 9780 nM
inhibitory effect on pancreatic cancer cell BxPC-3 (in words) [5]: excellent inhibitory effects
IC50 [5]: 2820 nM

C[C@H](NP(=O)(OC[C@H]1S[C@@H](n2ccc(N)nc2=O)[C@@H](F)[C@@H]1O)Oc1ccccc1)C(=O)OCc1ccc(F)cc1 (stereo partly drawn) [Compound C15, (2S)-4-fluorobenzyl 2-(((((2R,3S,4S,5R)-5-(4-amino-2-oxopyrimidin-1(2H)-yl)-4-fluoro-3-hydroxytetrahydrothiophen-2-yl)methoxy)(phenoxy)phosphoryl)amino)propanoate]
inhibitory effect on gastric cancer cell NCI-N87 (in words) [3]: excellent inhibitory effects
IC50 [3]: 240 nM
inhibitory effect on colorectal cancer cell HCT-15 (in words) [4]: excellent inhibitory effects
IC50 [4]: 4080 nM
inhibitory effect on pancreatic cancer cell BxPC-3 (in words) [5]: excellent inhibitory effects
IC50 [5]: 1800 nM

CC(C)OC(=O)[C@H](C)NP(=O)(OC[C@H]1S[C@@H](n2ccc(N)nc2=O)[C@@H](F)[C@@H]1O)Oc1cccc2c1OCCO2 (stereo partly drawn) [Compound C16, (S)-isopropyl 2-(((((2R,3S,4S,5R)-5-(4-amino-2-oxopyrimidin-1(2H)-yl)-4-fluoro-3-hydroxytetrahydrothiophen-2-yl)methoxy)((2,3-dihydrobenzo[b][1,4]dioxin-5-yl)oxy)phosphoryl)amino)propanoate]
inhibitory effect on gastric cancer cell NCI-N87 (in words) [3]: excellent inhibitory effects
IC50 [3]: 300 nM
inhibitory effect on pancreatic cancer cell BxPC-3 (in words) [5]: excellent inhibitory effects
IC50 [5]: 1150 nM

CC(C)OC(=O)[C@H](C)NP(=O)(OC[C@H]1S[C@@H](n2ccc(N)nc2=O)[C@@H](F)[C@@H]1O)Oc1ccc(F)c2c1CCO2 (stereo partly drawn) [Compound C17, (S)-isopropyl 2-(((((2R,3S,4S,5R)-5-(4-amino-2-oxopyrimidin-1(2H)-yl)-4-fluoro-3-hydroxytetrahydrothiophen-2-yl)methoxy)((7-fluoro-2,3-dihydrobenzofuran-4-yl)oxy)phosphoryl)amino)propanoate]
inhibitory effect on gastric cancer cell NCI-N87 (in words) [3]: excellent inhibitory effects
IC50 [3]: 630 nM
inhibitory effect on pancreatic cancer cell BxPC-3 (in words) [5]: excellent inhibitory effects
IC50 [5]: 3800 nM

CC(C)OC(=O)[C@H](C)NP(=O)(OC[C@H]1S[C@@H](n2ccc(N)nc2=O)[C@@H](F)[C@@H]1O)Oc1ccc2c(c1)OCC2 (stereo partly drawn) [Compound C18, (S)-isopropyl 2-(((((2R,3S,4S,5R)-5-(4-amino-2-oxopyrimidin-1(2H)-yl)-4-fluoro-3-hydroxytetrahydrothiophen-2-yl)methoxy)((2,3-dihydrobenzofuran-6-yl)oxy)phosphoryl)amino)propanoate]
inhibitory effect on pancreatic cancer cell BxPC-3 (in words) [5]: excellent inhibitory effect
IC50 [5]: 2740 nM

CC(C)OC(=O)[C@H](C)NP(=O)(OC[C@H]1S[C@@H](n2ccc(N)nc2=O)[C@@H](F)[C@@H]1O)Oc1ccc2ccoc2c1 (stereo partly drawn) [Compound C19, (S)-isopropyl 2-(((((2R,3S,4S,5R)-5-(4-amino-2-oxopyrimidin-1(2H)-yl)-4-fluoro-3-hydroxytetrahydrothiophen-2-yl)methoxy)(benzofuran-6-yloxy)phosphoryl)amino)propanoate]
inhibitory effect on gastric cancer cell NCI-N87 (in words) [3]: excellent inhibitory effects
IC50 [3]: 350 nM
inhibitory effect on pancreatic cancer cell BxPC-3 (in words) [5]: excellent inhibitory effects
IC50 [5]: 680 nM
